Reference: patent publication US20220380374A1, “1,4-DIHYDROBENZO[D]PYRAZOLO[3,4-F][1,3]DIAZEPINE DERIVATIVES AND RELATED COMPOUNDS AS LRRK2, NUAK1 AND/OR TYK2 KINASE MODULATORS FOR THE TREATMENT OF E.G. AUTOIMMUNE DISEASE” (Origenis GMBH, priority 2019, published 2022)

Assays:
[1] = biological target: T1, wt human NUAK1, full length (Homo sapiens, UniProt O60285); test: TR-FRET LanthaScreen Eu Kinase Binding Assay, NUAK1; settings: 5 nM Kinase Tracer 236; read-out: IC50, inhibitory activity toward NUAK1
T1 construct: 8 nM wt human NUAK1, full length (ThermoFisher/USA); purchased ThermoFisher/USA
T1 sequence (O60285 1-661): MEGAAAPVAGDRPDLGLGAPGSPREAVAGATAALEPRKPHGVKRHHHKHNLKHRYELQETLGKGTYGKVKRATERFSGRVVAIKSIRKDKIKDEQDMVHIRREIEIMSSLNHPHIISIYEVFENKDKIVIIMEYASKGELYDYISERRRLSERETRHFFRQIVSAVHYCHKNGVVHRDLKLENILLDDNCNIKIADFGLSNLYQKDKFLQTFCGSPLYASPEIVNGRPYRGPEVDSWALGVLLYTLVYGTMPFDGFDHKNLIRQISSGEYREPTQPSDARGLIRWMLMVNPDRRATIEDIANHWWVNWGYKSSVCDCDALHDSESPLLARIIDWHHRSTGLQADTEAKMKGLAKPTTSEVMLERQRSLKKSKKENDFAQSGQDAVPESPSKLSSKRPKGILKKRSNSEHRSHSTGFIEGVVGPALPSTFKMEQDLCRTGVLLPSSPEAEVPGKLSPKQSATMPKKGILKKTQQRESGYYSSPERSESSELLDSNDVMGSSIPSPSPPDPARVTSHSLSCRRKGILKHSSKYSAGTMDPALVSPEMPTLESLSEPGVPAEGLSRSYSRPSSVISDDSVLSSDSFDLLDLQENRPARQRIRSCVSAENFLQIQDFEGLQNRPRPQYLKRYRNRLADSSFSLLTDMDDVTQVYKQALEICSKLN
Experimental: The basic protocol for TR-FRET LanthaScreen Eu Kinase Binding Assay inhibitor studies were performed as follows. LanthaScreen Kinase Binding Assays (ThermoFisher/USA) to evaluate inhibitors were performed by addition of 5 μl of test compound in corresponding DMSO dilutions/5 μl of kinase/antibody mixture, 5 μl of tracer into 384 well small volume plates. After incubation for 1 hour at room temperature, plates were read. Data analysis of emission ratios was according to LanthaScreen Eu Kinase Binding Assay protocol.
Kinase and assay components were adjusted to final concentrations according to the kit protocol. For LRRK2: 5 nM wt human LRRK2, catalytic site, or G2019S human LRRK2, catalytic site (ThermoFisher/USA), 2 nM Eu-Anti-GST Antibody, 10 nM Kinase Tracer 236 in 1× Kinase Buffer A. For NUAK1: 8 nM wt human NUAK1, full length (ThermoFisher/USA), 2 nM Eu-Anti-His Antibody, 5 nM Kinase Tracer 236 in 1× Kinase Buffer A.

[2] = biological target: T2, wt human TYK2, catalytic site (Homo sapiens, UniProt P29597); test: HTRF KinEASE assay, TYK2; format: biochemical; settings: 1 μM ATP; read-out: IC50, inhibitory activity toward TYK2
T2 construct: 2 nM wt human TYK2, catalytic site (SignalChem/CAN); purchased SignalChem/CAN
T2 sequence (P29597 897-1176 limits assumed): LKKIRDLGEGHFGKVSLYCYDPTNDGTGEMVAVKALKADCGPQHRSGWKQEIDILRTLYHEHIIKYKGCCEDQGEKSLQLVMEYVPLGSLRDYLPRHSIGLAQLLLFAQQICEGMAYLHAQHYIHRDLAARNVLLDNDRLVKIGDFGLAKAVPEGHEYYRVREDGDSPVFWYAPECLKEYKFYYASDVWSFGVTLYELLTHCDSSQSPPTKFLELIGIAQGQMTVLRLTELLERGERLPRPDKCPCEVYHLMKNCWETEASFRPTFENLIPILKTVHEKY
Experimental: Basic protocol for HTRF KinEASE assay (Cisbio/FRA) inhibitor studies involved two steps: Enzymatic step: Addition of 4 μl of test compound in corresponding DMSO dilutions, 4 μl of kinase/substrate mixture, 2 μl of ATP into 384 well small volume plates. Incubation for at least 30 minutes at room temperature.
Detection step: Addition of 5 μl antibody and 5 μl streptavidin-XL665, read plate after 60 minutes. Data analysis of emission ratios according to KinEASE assay protocol.
Kinase and assay components were adjusted to final concentrations according to the kit protocol. For TYK2: 2 nM wt human TYK2, catalytic site (SignalChem/CAN), 1 μM HTRF KinEASE-TK Substrate-biotin, 1 μM ATP in 1× Kinase Buffer

Structure (SMILES)	IC50 [1]	IC50 [2]
CCC(C)Oc1cc2c(cc1F)-c1n[nH]cc1N=C(c1c(F)cccc1Cl)N2 (stereo not drawn) [Compound 239, 8-(sec-butoxy)-5-(2-chloro-6-fluorophenyl)-9-fluoro-2,6-dihydrobenzo[d]pyrazolo[3,4-f][1,3]diazepine]	100 to 1000 nM	10 to 100 nM
Fc1cc2c(cc1Oc1ccccc1)N=C(c1c(F)cccc1Cl)Nc1c[nH]nc1-2 [Compound 244, 5-(2-chloro-6-fluorophenyl)-9-fluoro-8-phenoxy-2,4-dihydrobenzo[d]pyrazolo[3,4-f][1,3]diazepine]		100 to 1000 nM
Fc1cc2c(cc1-c1ccccc1)N=C(c1c(F)cccc1F)Nc1c[nH]nc1-2 [Compound 231, 5-(2,6-difluorophenyl)-9-fluoro-8-phenyl-2,4-dihydrobenzo[d]pyrazolo[3,4-f][1,3]diazepine]	10 to 100 nM	10 to 100 nM
Fc1cccc(F)c1C1=Nc2ccccc2-c2[nH]nc(Cl)c2N1 [Compound 135, 3-chloro-5-(2,6-difluorophenyl)-1,4-dihydrobenzo[d]pyrazolo[3,4-f][1,3]diazepine]	10 to 100 nM	10 to 100 nM
Fc1cccc(Cl)c1C1=Nc2c(Br)n[nH]c2-c2cccnc2N1 [Compound 88]	10 to 100 nM	10 to 100 nM
Fc1cc2c(cc1-c1cccnn1)N=C(c1c(F)cccc1Cl)Nc1c[nH]nc1-2 [Compound 228, 5-(2-chloro-6-fluorophenyl)-9-fluoro-8-(pyridazin-3-yl)-2,4-dihydrobenzo[d]pyrazolo[3,4-f][1,3]diazepine]	10 to 100 nM	< 10 nM
O=[N+]([O-])c1cccc(F)c1C1=Nc2cn[nH]c2-c2cccnc2N1 [Compound 108, 5-(2-fluoro-6-nitrophenyl)-1,6-dihydropyrazolo[4,3-d]pyrido[3,2-f][1,3]diazepine]		100 to 1000 nM
CCC(CC)Oc1cc2c(cc1F)-c1n[nH]cc1N=C(c1c(F)cccc1Cl)N2 [Compound 232, 5-(2-chloro-6-fluorophenyl)-9-fluoro-8-(pentan-3-yloxy)-2,6-dihydrobenzo[d]pyrazolo[3,4-f][1,3]diazepine]		10 to 100 nM
O=C(NC1CCOCC1)c1cc2c(cc1Cl)-c1n[nH]cc1N=C(c1c(F)cccc1F)N2 [Compound 199, 9-chloro-5-(2,6-difluorophenyl)-N-(tetrahydro-2H-pyran-4-yl)-2,6-dihydrobenzo[d]pyrazolo[3,4-f][1,3]diazepine-8-carboxamide]		100 to 1000 nM
Fc1cc2c(cc1OC1CCOCC1)N=C(c1c(Cl)cccc1C(F)(F)F)Nc1c[nH]nc1-2 [Compound 224, 5-(2-chloro-6-(trifluoromethyl)phenyl)-9-fluoro-8-((tetrahydro-2H-pyran-4-yl)oxy)-2,4-dihydrobenzo[d]pyrazolo[3,4-f][1,3]diazepine]		10 to 100 nM
O=C(c1ccc2c(c1)N=C(c1c(Cl)cccc1Cl)Nc1cn[nH]c1-2)N1CCOCC1 [Compound 79, (5-(2,6-dichlorophenyl)-1,4-dihydrobenzo[d]pyrazolo[3,4-f][1,3]diazepin-8-yl)(morpholino)methanone]		100 to 1000 nM
CC[C@@H](C)Oc1cc2c(cc1F)-c1n[nH]cc1N=C(c1c(F)cccc1Cl)N2 [Compound 248, (R)-8-(sec-butoxy)-5-(2-chloro-6-fluorophenyl)-9-fluoro-2,6-dihydrobenzo[d]pyrazolo[3,4-f][1,3]diazepine]		10 to 100 nM

Now from value to molecule:

IC50 [1]	IC50 [2]	Structure (SMILES)
10 to 100 nM	100 to 1000 nM	Fc1ccc2c(c1)-c1[nH]ncc1N=C(c1c(F)cc(OC(F)F)cc1F)N2 [Compound 215, 5-(4-(difluoromethoxy)-2,6-difluorophenyl)-9-fluoro-1,6-dihydrobenzo[d]pyrazolo[3,4-f][1,3]diazepine]
10 to 100 nM	100 to 1000 nM	Cc1ccc2c(c1)-c1[nH]ncc1NC(c1c(Cl)ccc(Br)c1F)=N2 [Compound 184, 5-(3-bromo-6-chloro-2-fluorophenyl)-9-methyl-1,4-dihydrobenzo [d]pyrazolo[3,4-f][1,3]diazepine]
	100 to 1000 nM	Fc1cccc(F)c1C1=Nc2cn[nH]c2-c2cn(C3CCOCC3)nc2N1 [Compound 60, 5-(2,6-difluorophenyl)-8-(tetrahydro-2H-pyran-4-yl)-6,8-dihydro-1H-dipyrazolo[3,4-d:3′,4′-f][1,3]diazepine]
	100 to 1000 nM	Fc1ccc2c(c1F)N=C(c1c(F)cccc1F)Nc1cn[nH]c1-2 [Compound 170, 5-(2,6-difluorophenyl)-7,8-difluoro-1,4-dihydrobenzo[d]pyrazolo[3,4-f][1,3]diazepine]
10 to 100 nM	100 to 1000 nM	Fc1cccc(F)c1C1=Nc2cn[nH]c2-c2cc(OC(F)F)ccc2N1 [Compound 42, 9-(difluoromethoxy)-5-(2,6-difluorophenyl)-1,6-dihydrobenzo[d]pyrazolo[3,4-f][1,3]diazepine]
10 to 100 nM	100 to 1000 nM	Cc1ccc2c(c1)-c1[nH]ncc1NC(c1c(Cl)ccc(F)c1F)=N2 [Compound 186, 5-(6-chloro-2,3-difluorophenyl)-9-methyl-1,4-dihydrobenzo[d]pyrazolo[3,4-f][1,3]diazepine]
< 10 nM	10 to 100 nM	Fc1cccc(F)c1C1=Nc2cnccc2-c2[nH]ncc2N1 [Compound 71, 5-(2,6-difluorophenyl)-1,4-dihydropyrazolo[4,3-d]pyrido[4,3-f][1,3]diazepine]
10 to 100 nM	10 to 100 nM	Fc1cccc(F)c1C1=Nc2cc(-c3ccn[nH]3)ccc2-c2[nH]ncc2N1 [Compound 159, 5-(2,6-difluorophenyl)-8-(1H-pyrazol-5-yl)-1,4-dihydrobenzo[d]pyrazolo[3,4-f][1,3]diazepine]
	100 to 1000 nM	O=[N+]([O-])c1ccc(F)c(C2=Nc3cn[nH]c3-c3ccccc3N2)c1F [Compound 107, 5-(2,6-difluoro-3-nitrophenyl)-1,6-dihydrobenzo[d]pyrazolo[3,4-f][1,3]diazepine]
	100 to 1000 nM	COc1cccc(F)c1C1=Nc2cn[nH]c2-c2cccnc2N1 [Compound 119]
	100 to 1000 nM	O=C(c1ccc2c(c1)N=C(c1c(F)cccc1F)Nc1cn[nH]c1-2)N1CCOCC1 [Compound 56, (5-(2,6-difluorophenyl)-1,4-dihydrobenzo[d]pyrazolo[3,4-f][1,3]diazepin-8-yl)(morpholino)methanone]
	10 to 100 nM	Fc1cccc(Cl)c1C1=Nc2ncccc2-c2[nH]ncc2N1 [Compound 30, 5-(2-chloro-6-fluorophenyl)-1,4-dihydropyrazolo[4,3-d]pyrido[3,2-f][1,3]diazepine]
	< 10 nM	NC(=O)c1ccc2c(c1)N=C(c1c(F)cccc1F)Nc1cn[nH]c1-2 [Compound 81, 5-(2,6-difluorophenyl)-1,4-dihydrobenzo[d]pyrazolo[3,4-f][1,3]diazepine-8-carboxamide]
	100 to 1000 nM	O=[N+]([O-])c1cccc(F)c1C1=Nc2cn[nH]c2-c2ccccc2N1 [Compound 106, 5-(2-fluoro-6-nitrophenyl)-1,6-dihydrobenzo[d]pyrazolo[3,4-f][1,3]diazepine]
	10 to 100 nM	Fc1cccc(F)c1C1=Nc2cn[nH]c2-c2[nH]ncc2N1 [Compound 66, 5-(2,6-difluorophenyl)-4,9-dihydro-1H-dipyrazolo[4,3-d:3′,4′-f][1,3]diazepine]
	100 to 1000 nM	Fc1cccc(I)c1C1=Nc2ccccc2-c2[nH]ncc2N1 [Compound 111, 5-(2-fluoro-6-iodophenyl)-1,4-dihydrobenzo[d]pyrazolo[3,4-f][1,3]diazepine]
